{"source": "patent US20250367111A1", "about": "“DELIVERY OF SUSTAINED LOCAL AND SYSTEMIC IMMUNOMODULATION” (Northeastern University, priority 2024, published 2025)", "key": {"[1]": {"conditions": "intratumoral; 40 patients with advanced metastatic solid tumors or lymphomas; cited from earlier work"}, "[2]": {"test": "Blood cell count with Procyte Dx Analyzer after oral TLZ", "format": "in vivo", "conditions": "BRCA−/− breast cancer mice, indicative of bone marrow toxicity", "source_text": "PARPi have been limited due to induction of bone marrow toxicity."}, "[3]": {"tested_on": "BRCA−/− model with conditional BRCA1/2, PTEN, and TP53 deletions (mFT3666)", "test": "Survival in BRCA−/− mOC model (mFT3666)", "format": "in vivo, mice", "conditions": "free TLZ; control ~57 days", "method": "Sustained PARP inhibition doubles survival in BRCA^−/− mOC model. Therapeutic efficacy was tested in vivo in a BRCA^−/− model with conditional BRCA1/2, PTEN, and TP53 deletions (mFT3666) that mimics late stage disseminated disease. Free TLZ slowed disease progression and extended median survival to ˜70 days, compared with control (˜57 days). These animals eventually developed severe ascites and had to be sacrificed. A InCeT-TLZ implant loaded with 50 μg of TLZ was injected into the peritoneal cavity using an 18 gauge needle every 25 days. Most of the InCeT-TLZ group of animals survived until 93 days, with some developing ascites."}, "[4]": {"tested_on": "Brca2−/−p53−/−R172H Pten−/− intraperitoneal disseminated metastatic ovarian cancer model", "test": "Survival in intraperitoneal disseminated metastatic ovarian cancer model", "format": "in vivo", "conditions": "i.p.; 50 μg TLZ over 21 days (implant or equivalent dose by periodic injections)", "method": "In a Brca2^−/−p53^−/−R172H Pten^−/− intraperitoneal disseminated metastatic ovarian cancer model, SMAART-TLZ i.p implants (50 μg TLZ release over 21 days) increased median survival to 92 days compared to periodic i.p injections of TLZ at the equivalent drug dose over 21 days (70 days median OS-FIG. 6A)."}, "[5]": {"tested_on": "mammary glands of BRCA1-deficient mice", "test": "Cancer biomarkers (PCNA, γ-H2AX) in mammary glands of BRCA1-deficient mice", "format": "in vivo", "conditions": "mammary glands harvested 4 weeks after treatment", "method": "InCeT-TLZ favorably alters cancer biomarkers compared with systemic administration or empty implants. Mammary glands were harvested 4 weeks after BRCA1-deficient mice were treated with implants (InCeT-TLZ or empty InCeT) or free TLZ. As shown in, over half of the epithelial cells in the mammary glands of mice treated with empty InCeT were positive for PCNA, confirming robust proliferation."}, "[6]": {"conditions": "EMBRACA, cited from earlier work"}, "TNBC": {"tested_on": "TNBC", "conditions": "cited from earlier work"}}, "data": [{"molecule": "Nc1ncnc2c1ncn2[C@@H]1O[C@@H]2COP(=O)([S-])O[C@@H]3[C@H](O)[C@@H](COP([O-])(=S)O[C@H]2[C@H]1O)O[C@H]3n1cnc2c(N)ncnc21.[Na+].[Na+]", "note": "(stereo partly shown) [ADU-S100]", "values": [{"measurement": "dose-limiting toxicities", "setting": "[1]", "result": "no dose-limiting toxicities"}]}, {"molecule": "Cn1ncnc1[C@H]1c2n[nH]c(=O)c3cc(F)cc(c23)N[C@@H]1c1ccc(F)cc1", "note": "[TLZ, Talazoparib]", "values": [{"measurement": "red blood cells", "setting": "[2]", "result": "decrease in red blood cells"}, {"measurement": "median survival", "setting": "[3]", "result": "~70", "unit": "days"}, {"measurement": "median survival", "setting": "[4]", "result": 70, "unit": "days"}, {"measurement": "reduction of PCNA+ cells", "setting": "[5]", "result": "~50", "unit": "%"}, {"measurement": "γ-H2AX expression", "setting": "[5]", "result": "but not free TLZ increased γ-H2AX expression"}, {"measurement": "patients with adverse events", "setting": "[6]", "result": 65, "unit": "%"}, {"measurement": "patients with adverse events needing dose reduction below the therapeutic level", "setting": "[6]; of those patients", "result": 53, "unit": "%"}]}, {"molecule": "O=C(c1cc(Cc2n[nH]c(=O)c3ccccc23)ccc1F)N1CCN(C(=O)C2CC2)CC1", "note": "[olaparib]", "values": [{"measurement": "overall response rate (ORR)", "setting": "TNBC; human, in vivo", "result": 59.9, "unit": "%"}, {"measurement": "progression-free survival (PFS)", "setting": "TNBC; vs. 4.2 months standard chemotherapy", "result": 7, "unit": "months"}]}]}
